Test results taken from US20260209208A1, “PHENYL-PYRAZOLE CARBOXAMIDE COMPOUNDS” (Acrivon Therapeutics, Inc., priority 2022, published 2026).

Key:
[1] = Oral bioavailability study in mice; type: in vivo; conditions: female CD-1 mice, single IV bolus 1 mg/kg vs oral gavage 3 mg/kg, dose normalized AUC0-∞
Experimental: We compared the oral bioavailability of Compound 75:
(Compound A), which has a thiazolyl moiety in place of the furanyl moiety in Compound 75. Female CD-1 mice treated with a single intravenous bolus (IV; 1 mg/kg) or oral gavage (PO; 3 mg/kg) of one of the compounds. The percent bioavailability (% F) was calculated by dividing the dose normalized area under the plasma concentration curve (AUC0-∞) by the dose normalized IV plasma AUC0-∞.

[2] = molecular target: T1, recombinant human PMYT-1 (Myt1 kinase) (Homo sapiens, UniProt Q99640); assay: LanthaScreen Europium (Eu) Kinase Binding Assay for Myt1 kinase; conditions: TR-FRET tracer 178 displacement, GST-tagged full length PMYT-1, 60 min, room temperature; mean IC50; read-out: LANTHA Kinase Binding for PMyt1
T1 construct: full length PMYT-1 was expressed by baculovirus in insect cells using a N-terminal GST tag; purchased Invitrogen A30984; host or cells: insect cells (baculovirus)
T1 sequence (Q99640 1-499): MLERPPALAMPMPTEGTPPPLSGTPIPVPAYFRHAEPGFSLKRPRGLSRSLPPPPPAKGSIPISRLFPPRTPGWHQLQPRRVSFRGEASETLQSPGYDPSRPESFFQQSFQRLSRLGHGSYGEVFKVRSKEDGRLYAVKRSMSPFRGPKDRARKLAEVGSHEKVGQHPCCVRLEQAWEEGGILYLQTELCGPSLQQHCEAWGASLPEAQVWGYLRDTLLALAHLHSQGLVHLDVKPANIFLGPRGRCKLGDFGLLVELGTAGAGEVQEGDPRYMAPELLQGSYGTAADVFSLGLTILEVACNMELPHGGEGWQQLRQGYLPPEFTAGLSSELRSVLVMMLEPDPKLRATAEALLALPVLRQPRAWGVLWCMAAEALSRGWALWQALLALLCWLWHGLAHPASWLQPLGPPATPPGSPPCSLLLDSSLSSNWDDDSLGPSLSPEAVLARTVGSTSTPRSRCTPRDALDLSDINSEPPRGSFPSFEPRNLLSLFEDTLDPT
From the text: We used a LanthaScreen Europium (Eu) Kinase Binding Assay to determine the binding of provided compounds to Myt1 kinase. The assay utilizes an Alexa Fluor 647-labeled ATP competitive kinase tracer that binds to the ATP binding site of a GST-tagged Myt1 kinase, while a europium (Eu) labeled antibody binds to the GST tag. The proximity of fluorescently labeled kinase tracer and europium (Eu) donor fluorophore antibody leads to fluorescence resonance energy transfer (FRET) to the fluorescence label (acceptor) upon excitation of the Eu (donor). Displacement of tracer from the ATP-binding site by a test compound disturbs the proximity between both labels thus lowering the FRET.
This time resolved-FRET binding assay was performed in white 384-well low volume plates (Greiner, cat #784075), at room temperature in kinase buffer A (KBA; Invitrogen cat # PV3189), consisting of 50 mM HEPES-NaOH (pH 7.5), 0.01% Brij-35, 10 mM MgCl2, and 1 mM EGTA. 5 μl of compound (diluted in reaction buffer, to 1% DMSO) were added to various wells in the plate, followed by 5 μl each of recombinant human PMYT-1 (full length PMYT-1 was expressed by baculovirus in insect cells using a N-terminal GST tag (MW: 80.8 kDa) (Invitrogen cat #A30984) and LanthaScreen Eu-anti-GST antibody (Invitrogen, cat #PV5594). After this, 5 μl of kinase tracer 178 (Invitrogen, cat #PV5593) was added to the plate and the plate was incubated for 60 minutes at room temperature. The final assay conditions in each well were: 3 nM tracer 178, 2.5 nM PMYT-1 and 1 nM Eu-labeled antibody in total assay volume of 15 μl. An Envision 2104 (Perkin-Elmer) Plate Reader with the following time-resolve fluorescence setting was used for performing LanthaScreen kinase binding assay. • Excitation 320 nm (30 nm bandpass) • Kinase Tracer Emission 665 nm (10 nm bandpass) • LanthaScreen Eu-anti-Tag Antibody Emission 615 nm (10 nm bandpass) • Dichroic Mirror Instrument dependent • Delay Time 100 μs • Integration Time 200 μs
To calculate the emission ratio, the acceptor/tracer emission ([…]) was divided by the antibody/donor emission ([…]) and the average of duplicate measurement was used for calculations. Data plotting, analysis of binding, and curve fitting was done using Excel add-in XLfit version 5.5.0.5 (IDBS, Guildford, United Kingdom).

Myt1 Kinase = molecular target: T2, Myt1 Kinase (Homo sapiens, UniProt Q99640); assay: AlphaLISA SureFire Ultra Human Phospho-CDK1 (Thr14) target engagement assay in DAOY cells; type: cell-based; conditions: 4 h incubation, Cdk1 phosphorylated on threonine 14, read-out: TE Myt1 Kinase (AlphaLISA)
T2 construct: endogenous in cells; host or cells: DAOY medulloblastoma cells (ATCC)
T2 sequence (Q99640 1-499): T1 sequence (Q99640 1-499)
Experimental: The following cellular assay was used to determine the extent to which the compounds disclosed herein inhibit phosphorylation of CDK1 at Thr 14.
(§1) DAOY medulloblastoma cell line (ATCC) was cultured in Minimum Essential Medium Eagle supplemented with 10% fetal calf serum (Sigma), 1% Penicillin-Streptomycin and 10 mM HEPES buffer (HyClone). Cell cultures were kept in a humidified incubator at 37° C. and 5% CO2. Cells were routinely tested for Mycoplasma contamination.
For target engagement assessment, quantification of Cdk1 phosphorylated on threonine 14 was detected using the AlphaLISA® SureFire® Ultra™ Human Phospho-CDK1 (Thr14) assay (Perkin Elmer). DAOY cells were seeded into tissue culture 96-well plates (VWR) to a density of 10,000 cells per well. Twenty-four hours post-seeding cells were incubated for 4 h with test compounds at concentrations ranging from 7 to 5000 nM. Cells were washed with PBS and lysed in 50 μl AlphaLISA® lysis buffer before freezing at −80° C. Ten μl of the lysate was transferred to 384 well plates and incubated with AlphaLISA® donor and acceptor beads according to the manufacturer's instructions. Dose response curves and EC50 values were calculated and visualized using GraphPad Prism version 9.

DAOY cells = assay: Cell Titer Glo viability assay; type: cell-based; conditions: Homo sapiens, 144 hours, Cell Titer Glo 2.0
Experimental: as §1
DAOY cells were seeded at a density of 250 cells per well in tissue culture 384 well plates (Corning Costar). After overnight incubation, cells were incubated with test compounds at concentrations ranging from 0.17 to 10,000 nM. Viability compared to untreated control was assessed at 144 hours using Cell Titer Glo® 2.0 Viability Assay (Promega).

| SMILES | Bioavailability (% F) [1] | IC50 [2] | EC50 (Myt1 Kinase) | EC50 (DAOY cells) |
| --- | --- | --- | --- | --- |
| Cc1ccc(O)c(C)c1-n1nc(-c2ccco2)c(C(N)=O)c1N [Compound 75, 5-amino-3-(2-furyl)-1-(3-hydroxy-2,6-xylyl)-4-pyrazolecarboxamide] | 64 % F | ≤ 10 nM | ≤ 250 nM | ≤ 500 nM |
| C=C(C)c1coc(-c2nn(-c3c(C)ccc(O)c3C)c(N)c2C(N)=O)c1 [Compound 97, 5-amino-1-(3-hydroxy-2,6-xylyl)-3-(4-isopropenyl-2-furyl)-4-pyrazolecarboxamide] | – | ≤ 10 nM | ≤ 250 nM | ≤ 500 nM |
| Cc1ccc(O)c(C)c1-n1nc(-c2cc(-c3ccccn3)co2)c(C(N)=O)c1N [Compound 98, 5-amino-1-(3-hydroxy-2,6-xylyl)-3-[4-(2-pyridyl)-2-furyl]-4-pyrazolecarboxamide] | – | ≤ 10 nM | ≤ 250 nM | ≤ 500 nM |
| Cc1ccc(O)c(C)c1-n1nc(-c2ccc(-c3ccncc3)o2)c(C(N)=O)c1N [Compound 99, 5-amino-1-(3-hydroxy-2,6-xylyl)-3-[5-(4-pyridyl)-2-furyl]-4-pyrazolecarboxamide] | – | ≤ 10 nM | ≤ 250 nM | > 1000 nM |
| Cc1ccc(O)c(C)c1-n1nc(-c2ccc(C#N)o2)c(C(N)=O)c1N [Compound 101, 5-amino-3-(5-cyano-2-furyl)-1-(3-hydroxy-2,6-xylyl)-4-pyrazolecarboxamide] | – | 10 to 100 nM | ≤ 250 nM | > 1000 nM |
| Cc1ccc(O)c(C)c1-n1nc(-c2cc(C(C)C)co2)c(C(N)=O)c1N [Compound 102, 5-amino-1-(3-hydroxy-2,6-xylyl)-3-(4-isopropyl-2-furyl)-4-pyrazolecarboxamide] | – | ≤ 10 nM | ≤ 250 nM | ≤ 500 nM |
| CC(C)=Cc1coc(-c2nn(-c3c(C)ccc(O)c3C)c(N)c2C(N)=O)c1 [Compound 108, 5-amino-1-(3-hydroxy-2,6-xylyl)-3-[4-(2-methyl-1-propenyl)-2-furyl]-4-pyrazolecarboxamide] | – | ≤ 10 nM | ≤ 250 nM | 500 to 1000 nM |
| Cc1ccc(O)c(C)c1-n1nc(-c2cc(C3CC3)co2)c(C(N)=O)c1N [Compound 111, 5-amino-3-(4-cyclopropyl-2-furyl)-1-(3-hydroxy-2,6-xylyl)-4-pyrazolecarboxamide] | – | 10 to 100 nM | ≤ 250 nM | 500 to 1000 nM |
| C/C=C/c1coc(-c2nn(-c3c(C)ccc(O)c3C)c(N)c2C(N)=O)c1 [Compound 112, 3-{4-[(E)-1-propenyl]-2-furyl}-5-amino-1-(3-hydroxy-2,6-xylyl)-4-pyrazolecarboxamide] | – | ≤ 10 nM | ≤ 250 nM | 500 to 1000 nM |
| Cc1ccc(O)c(C)c1-n1nc(-c2cc(C#CC(C)(C)O)co2)c(C(N)=O)c1N [Compound 113, 5-amino-3-[4-(3-hydroxy-3-methyl-1-butynyl)-2-furyl]-1-(3-hydroxy-2,6-xylyl)-4-pyrazolecarboxamide] | – | 10 to 100 nM | 250 to 500 nM | > 1000 nM |
| CC#Cc1coc(-c2nn(-c3c(C)ccc(O)c3C)c(N)c2C(N)=O)c1 [Compound 114, 5-amino-1-(3-hydroxy-2,6-xylyl)-3-[4-(1-propynyl)-2-furyl]-4-pyrazolecarboxamide] | – | ≤ 10 nM | ≤ 250 nM | 500 to 1000 nM |
| COc1ccc2oc(-c3nn(-c4c(C)ccc(O)c4C)c(N)c3C(N)=O)cc2c1 [Compound 115, 5-amino-1-(3-hydroxy-2,6-dimethylphenyl)-3-(5-methoxybenzofuran-2-yl)-1H-pyrazole-4-carboxamide] | – | ≤ 10 nM | ≤ 250 nM | 500 to 1000 nM |
| Cc1ccc(O)c(C)c1-n1nc(-c2cccs2)c(C(N)=O)c1N [Compound 119] | – | ≤ 10 nM | ≤ 250 nM | 500 to 1000 nM |
| Cc1ccc(O)c(C)c1-n1nc(-c2nccs2)c(C(N)=O)c1N [Compound 122] | 32 % F | ≤ 10 nM | ≤ 250 nM | ≤ 500 nM |
| Cc1ccc(O)c(C)c1-n1nc(-c2ncco2)c(C(N)=O)c1N [Compound 123] | – | ≤ 10 nM | ≤ 250 nM | 500 to 1000 nM |
